The values below come from US20100256098A1, “COMPOUNDS FOR INHIBITING WIP1, PRODRUGS AND COMPOSITIONS THEREOF, AND RELATED METHODS” (The United States of America, as represented by the …, priority 2007, published 2010).

Changes are numbered by the printed parent chain. Like-named read-outs stand apart in the source and are kept apart here.

In one assay the test system is Wip1 in MCF7 cells. As to the kind of experiment: Western blot of phospho-p38 MAPK and p38 MAPK in MCF7 cells treated with compound. Format: cell-based, human. As to conditions: DMSO negative and UV (25J/m2) positive controls. The protocol: The selectivity of three compounds in inhibiting Wip1 was tested on human breast cancer cell line MCF7 cells, the latter strongly expressing Wip1. These cells were treated with each compound, and cell lysates were collected after the indicated time point. 20 ug of total protein extracts were subjected to SDS-PAGE, and levels of phospho-p38 MAPK and p38 MAPK were examined by Western blot analysis using specific antibodies. Dimethyl sulphoxide (DMSO) and UV (25J/m2) treated cells were used as the negative and positive controls respectively.

The target of assay [1] is T1, human Wip1 protein (rWip1, catalytic domain, residues 1-420) (Homo sapiens, UniProt O15297).
T1 sequence (O15297 1-420): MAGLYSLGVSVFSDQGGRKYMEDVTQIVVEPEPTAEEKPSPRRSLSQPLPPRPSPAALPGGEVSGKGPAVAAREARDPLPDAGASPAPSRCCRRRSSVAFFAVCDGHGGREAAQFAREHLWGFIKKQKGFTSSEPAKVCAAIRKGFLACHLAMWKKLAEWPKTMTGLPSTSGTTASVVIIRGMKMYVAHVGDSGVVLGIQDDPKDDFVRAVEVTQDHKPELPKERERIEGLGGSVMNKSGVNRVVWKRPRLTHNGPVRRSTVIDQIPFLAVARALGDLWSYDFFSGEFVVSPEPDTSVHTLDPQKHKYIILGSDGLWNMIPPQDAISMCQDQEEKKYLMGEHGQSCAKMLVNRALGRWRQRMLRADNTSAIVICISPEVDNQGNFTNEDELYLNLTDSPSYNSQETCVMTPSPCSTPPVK
As to the kind of experiment: Wip1 phosphatase assay (malachite green/molybdate-based).
Method: (§1) An N-terminal histidine-tagged, catalytic domain of the human Wip1 protein (amino acid residues 1-420), rWip1, and K238D mutant of Wip1 were expressed in Escherichia coli BL21 (DE3) and purified as previously reported in Yamaguchi et al., supra.
(§2) Phosphatase activity was measured by a malachite green/molybdate-based assay (see, e.g., Yamaguchi et al., Biochemistry, 44:5285-5294 (2005), Harder et al, Biochem J., 298: 395-401 (1994), and Donella-Deana et al., Methods Enzymol., 366: 3-17 (2003)). […] The inhibitors were pre-equilibrated at 30° C. for 6 min. The inhibition percentages were estimated by the following equation.
(§3) where A and A100 denote absorbance intensities at 650 nm with and without the inhibitor, respectively. A0 denotes absorbance of the sample without phosphatase. The IC50 values were estimated by a sigmoidal dose-response equation. The apparent inhibitory constant (Ki) values were estimated using the following equation (see, e.g., Cheng et al., Biochem. Pharmacol., 22: 3099-3108 (1973)):

Assay [2] deals with human Wip1 protein (rWip1, catalytic domain, residues 1-420). The assay is described as above. Particulars: versus K238D mutant and PP2Cα.
Method: as §1, §2, §3
In the next assay the target is T2, Wip1(K238D) (Homo sapiens, UniProt O15297, K238D).
T2 sequence (O15297 1-420 K238D): T1 sequence (O15297 1-420) with K238D
Kind of assay: Phosphatase assay with the K238D mutant of Wip1. As to conditions: for Ki: read-out: Ki (μM) Wip1(K238D), Table 2, K238D mutant of Wip1, NI = no inhibition observed.

Another assay deals with T3, PP2Cα (Homo sapiens, UniProt P35813).
T3 sequence (P35813 1-382): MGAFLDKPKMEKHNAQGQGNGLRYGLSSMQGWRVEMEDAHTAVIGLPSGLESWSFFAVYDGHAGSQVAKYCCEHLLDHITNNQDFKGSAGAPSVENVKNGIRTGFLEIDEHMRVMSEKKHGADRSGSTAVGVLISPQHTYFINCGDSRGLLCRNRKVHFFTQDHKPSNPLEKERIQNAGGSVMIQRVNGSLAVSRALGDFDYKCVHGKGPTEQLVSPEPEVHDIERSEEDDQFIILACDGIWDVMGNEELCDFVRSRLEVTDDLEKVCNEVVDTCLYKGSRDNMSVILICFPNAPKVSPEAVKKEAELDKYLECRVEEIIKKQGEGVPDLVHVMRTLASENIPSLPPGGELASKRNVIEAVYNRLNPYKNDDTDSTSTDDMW
As to the kind of experiment: Phosphatase assay with PP2Cα. As to conditions: for Ki: read-out: Ki (μM) PP2Cα, Table 2, NI = no inhibition observed.

Method for PP2Cα: (§4) The inhibitors were pre-equilibrated at 30° C. for 6 min. The inhibition percentages were estimated by the following equation.
as §3
(§5) wherein [S] is the concentration of the substrate peptide and Km is the Michaelis constant.
(§6) The selectivity of the compounds was determined. Certain compounds were tested to determine their selectivity in inhibiting Wip1, PP2Cα, and a K238D mutant of Wip1 according to the methods described above.
Method for Wip1(K238D): as §4, §3, §5, §6

As to `CCCCC(CCCC)Cc1c(-c2ccc(OP(=O)(OCCSC(=O)C(C)(C)C)Oc3ccccc3)c(Cl)c2)c(C(=O)O)c(Cc2ccc(Cl)cc2)n1CCCOP(=O)(OCCSC(=O)C(C)(C)C)Oc1ccccc1` (stereo not drawn) [Compound 1A], in the assay with Wip1 in MCF7 cells, the “effectiveness in inhibiting Wip1 (levels of phospho-p38 MAPK)” value was “effective”.
One may read the Ki as a measure of affinity in units of concentration, obtained from inhibition or displacement. The compound `CCc1c(-c2ccc(OP(=O)(O)O)cc2)c(C(N)=O)c(C)n1CCOP(=O)(O)O` [Compound 1] returned an inhibition constant (Ki) in assay [1] (pH 7.5) of more than 100 µM.
On the same count and under the same terms, in the case of `CCCc1c(-c2ccc(OP(=O)(O)O)cc2)c(C(N)=O)c(C)n1CCOP(=O)(O)O` [Compound 2] it was more than 100 µM.
Regarding `CCCC(C)Cc1c(-c2ccc(OP(=O)(O)O)cc2)c(C(N)=O)c(C)n1CCOP(=O)(O)O` (stereo not drawn) [Compound 3], the Ki in assay [1] is 61 ± 15 µM.
Regarding `Cc1c(C(N)=O)c(-c2ccc(OP(=O)(O)O)cc2)c(CC2CCCCC2)n1CCOP(=O)(O)O` [Compound 4], the inhibition constant (Ki) in assay [1] stood at 81 ± 5 µM.
Consider `CCCCCc1c(-c2ccc(OP(=O)(O)O)c(Cl)c2)c(C(N)=O)c(C)n1CCOP(=O)(O)O` [Compound 5], for which affinity in assay [1] was put at a Ki of 77 ± 12 µM.
With `Cc1c(C(N)=O)c(-c2ccc(OP(=O)(O)O)c(Cl)c2)c(CC(C)C)n1CCOP(=O)(O)O` [Compound 6], the affinity in assay [1], expressed as Ki, was 38 ± 8 µM.
On the same count and under the same terms, in the case of `CCCC(C)Cc1c(-c2ccc(OP(=O)(O)O)c(Cl)c2)c(C(N)=O)c(C)n1CCOP(=O)(O)O` (stereo not drawn) [Compound 7] it was 40 ± 1 µM; in that of `CCCC(C)Cc1c(-c2ccc(OP(=O)(O)O)cc2)c(C(N)=O)c(C)n1CCCOP(=O)(O)O` (stereo not drawn) [Compound 9], 22 ± 3 µM.
Same read-out and setting: in the case of `Cc1c(C(N)=O)c(-c2ccc(OP(=O)(O)O)c(Cl)c2)c(CC(C)C)n1CCCOP(=O)(O)O` [Compound 10] it was 28 ± 1 µM.
Regarding `CCCC(C)Cc1c(-c2ccc(OP(=O)(O)O)c(Cl)c2)c(C(N)=O)c(C)n1CCCCOP(=O)(O)O` (stereo not drawn) [Compound 11], the Ki in assay [1] (pH 7.5) is more than 100 µM.
Still for that read-out and setting: the result for `CCCC(C)Cc1c(-c2ccc(OP(=O)(O)O)c(Cl)c2)c(C(=O)NCCC(N)=O)c(C)n1CCCOP(=O)(O)O` (stereo not drawn) [Compound 12] reads more than 100 µM.
Take `CCCC(C)Cc1c(-c2ccc(OP(=O)(O)O)c(Cl)c2)c(C(=O)NC(CC(C)C)C(N)=O)c(C)n1CCCOP(=O)(O)O` (stereo not drawn) [Compound 13]: the inhibitory constant (Ki) in assay [1] was found to be 22 ± 2 µM.
For `CCCCC(C)c1c(C(N)=O)c(-c2ccc(OP(=O)(O)O)c(Cl)c2)c(C)n1CCCOP(=O)(O)O` (stereo not drawn) [Compound 14], the Ki in assay [1] (pH 7.5) is more than 100 µM.
In the case of `CCCC(C)Cc1c(-c2ccc(OP(=O)(O)O)cc2)c(C(N)=O)c(CC(C)C)n1CCCOP(=O)(O)O` (stereo not drawn) [Compound 15], the affinity in assay [1], expressed as Ki, was 48 ± 5 µM.
The same measure, in the same setting: in the case of `CCCC(C)Cc1c(-c2ccc(OP(=O)(O)O)c(Cl)c2)c(C(N)=O)c(CCc2ccccc2)n1CCCOP(=O)(O)O` (stereo not drawn) [Compound 18] it was 15 ± 1 µM; in that of `CC(C)Cc1c(-c2ccc(OP(=O)(O)O)c(Cl)c2)c(C(N)=O)c(Cc2ccc(Cl)cc2)n1CCCOP(=O)(O)O` [Compound 21], 22 ± 1 µM.
The same measure, in the same setting: the result for `CCCC(C)Cc1c(-c2ccc(OP(=O)(O)O)c(Cl)c2)c(C(N)=O)c(Cc2ccc(F)cc2)n1CCCOP(=O)(O)O` (stereo not drawn) [Compound 23] reads 16 ± 2 µM.
Consider `CCCC(C)Cc1c(-c2ccc(OP(=O)(O)O)c(Cl)c2)c(C(N)=O)c(CCc2ccc(Cl)cc2)n1CCCOP(=O)(O)O` (stereo not drawn) [Compound 24], for which the “selectivity for Wip1” value in assay [2] is on record as “highly selective”. Besides, the inhibition constant Ki in assay [1] is 5.7 ± 0.4 µM. Besides, on Wip1(K238D), the “inhibition of the K238D mutant” value is listed as “no inhibition” and the inhibition constant Ki was more than 100 µM. At PP2Cα, the “inhibition of PP2Cα” value was “no inhibition” and the Ki was more than 100 µM.
For the compound `CCC[C@H](C)Cc1c(-c2ccc(OP(=O)(O)O)c(Cl)c2)c(C(N)=O)c(CCc2ccc(Cl)cc2)n1CCCOP(=O)(O)O` [Compound 25], in assay [2], the “selectivity for Wip1” value is reported as “highly selective”. Moreover, the results for the inhibitory constant (Ki) (in assay [1]; at Wip1(K238D); at PP2Cα) were 4.7 ± 0.7 µM, more than 100 µM and more than 100 µM, respectively. In addition, at Wip1(K238D), the “inhibition of the K238D mutant” value was “no inhibition”. Besides, the “inhibition of PP2Cα” value on PP2Cα is reported as “no inhibition”.
For `CCC[C@@H](C)Cc1c(-c2ccc(OP(=O)(O)O)c(Cl)c2)c(C(N)=O)c(CCc2ccc(Cl)cc2)n1CCCOP(=O)(O)O` [Compound 26], the “selectivity for Wip1” value in assay [2] was “highly selective”. This compound had a Ki in assay [1] of 10 ± 1 µM. Moreover, on Wip1(K238D), the “inhibition of the K238D mutant” value is recorded as “no inhibition” and the inhibition constant Ki was more than 100 µM. Moreover, at PP2Cα, the “inhibition of PP2Cα” value is given as “no inhibition” and the inhibitory constant (Ki) was more than 100 µM.
